This is an account of results in PubChem BioAssay AID624167 (Sanford-Burnham Center for Chemical Genomics, 2012).

Structures are written as SMILES. Activity calls are given as the source filed them.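 How the source made its calls: active means mean IC50 for reducing PEG3 promoter reporter signal at or below a set limit, with IC50 above the limit in both counter screens; inactive means the rest, including counter screen hits.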

Test [1] has as its system PEG-3. The test can be described thus: inhibition of PEG-3 promoter-driven reporter – cell-based, HeLa, luciferase, CREF/GAPDH counter-screen panel, dose response (AID 624167). To be noted: HeLa PEG-Prom luciferase reporter, overnight, CREF/GAPDH counter-screens.
The target in test [2] is PEG-3 (UniProt Q6IN02). The description is as above. The note with it: HeLa PEG-Prom luciferase reporter, overnight, CREF/GAPDH counter-screens, mean of runs.
Where [3] appears, read: run 1, dose range 1, individual replicate IC50 per panel.
[4] abbreviates: run 2, dose range 1, individual replicate IC50 per panel.

PEG-3 (UniProt Q6IN02), sequence (Q6IN02 whole entry, looked up): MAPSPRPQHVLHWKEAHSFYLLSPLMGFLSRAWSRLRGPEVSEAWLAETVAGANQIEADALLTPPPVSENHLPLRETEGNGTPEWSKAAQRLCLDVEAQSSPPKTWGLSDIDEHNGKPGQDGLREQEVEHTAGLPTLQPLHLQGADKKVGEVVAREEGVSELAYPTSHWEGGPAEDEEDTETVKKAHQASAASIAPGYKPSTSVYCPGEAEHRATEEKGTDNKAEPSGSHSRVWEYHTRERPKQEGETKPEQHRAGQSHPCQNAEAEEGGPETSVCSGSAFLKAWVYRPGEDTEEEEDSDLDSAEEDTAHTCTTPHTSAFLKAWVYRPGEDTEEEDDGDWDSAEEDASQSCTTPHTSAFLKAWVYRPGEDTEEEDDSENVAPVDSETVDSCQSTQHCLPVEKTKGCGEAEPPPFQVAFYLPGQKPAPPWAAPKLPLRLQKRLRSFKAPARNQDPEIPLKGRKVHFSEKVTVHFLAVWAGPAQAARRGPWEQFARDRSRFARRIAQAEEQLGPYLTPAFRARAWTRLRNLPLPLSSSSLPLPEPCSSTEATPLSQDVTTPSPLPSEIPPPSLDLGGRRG

Consider `CN(C)CCNc1ncnc2c1sc1nc(N3CCOCC3)c3c(c12)CC(C)(C)SC3`, for which the IC50 is 18.1 µM in the test with PEG-3 [1] (setting [3]), 10.6 µM in the test on PEG-3 [1] (setting [4]) and 14.4 µM at PEG-3 [2].
On to `NC(N)=N/N=C/c1cccc(Cl)c1Cl`, for which the values for the IC50 in the test on PEG-3 [1] (setting [3]), in the test on PEG-3 [1] (setting [4]) and at PEG-3 [2] were 17.4 µM, 14.5 µM and 16 µM, respectively.
The like results for `COc1ccc(CC(N)c2csc(NC(=O)Nc3ccccc3C(C)(C)C)n2)cc1` (stereo unspecified) were, in that order, 19.1 µM, 31 µM and “inactive”.
The like results for `COc1ccc(-c2cc(-c3ccc(F)cc3)nc(N3CCN(C)CC3)n2)cc1` were, in that order, 21.6 µM, more than 100 µM and “inactive”.
`Cc1noc(-c2ccc(Cl)cc2)c1C(=O)O/N=C(\N)c1ccc(C(C)(C)C)cc1`: the IC50 was 17.3 µM in the test on PEG-3 [1] (setting [3]), 9.17 µM in the test on PEG-3 [1] (setting [4]) and 13.2 µM at PEG-3 [2].
The like results for `CCOC(=O)C1CCN(c2cc3c(cc2NC(=O)c2ccccc2OCC)n(C)c(=O)n3C)CC1` were, in that order, 35.7 µM, more than 100 µM and “inactive”.
The like results for `COc1ccc(-c2cc(C(=O)Nc3ccccc3N3CCOCC3)c3ccccc3n2)cc1OC` were, in that order, more than 100 µM, more than 100 µM and > 100 µM (inactive).
Regarding `CCN(Cc1ccccc1)S(=O)(=O)c1ccc(C(=O)N(CCCN(C)C)c2nc3cc4c(cc3s2)OCCO4)cc1`, the IC50 in the test with PEG-3 [1] (setting [3]) was 33.3 µM; in the test with PEG-3 [1] (setting [4]), more than 100 µM. The IC50 entry on PEG-3 [2] is “inactive”.
For `NC(=O)c1nsc(C(=O)N(c2ccccc2F)C(C(=O)NCc2ccccc2)c2ccc(O)cc2)c1N` (stereo unspecified), the IC50 was 39.4 µM in the test on PEG-3 [1] (setting [3]) and more than 100 µM in the test with PEG-3 [1] (setting [4]). Moreover, the IC50 result at PEG-3 [2] is “inactive”.
The like results for `CN(C)c1ccc(C(C(=O)NCc2ccccc2)N(Cc2ccco2)C(=O)c2snc(C(N)=O)c2N)cc1` (stereo unspecified) were, in that order, more than 100 µM, more than 100 µM and > 100 µM (inactive).
The like results for `CCn1c2ccccc2c2cc(NC(=O)C(C)OC(=O)c3ccc(NC(=O)CC#N)cc3)ccc21` (stereo unspecified) were, in that order, 41.9 µM, 39.1 µM and “inactive”.
Consider `Cc1cccc(CN2C(=O)[C@H]3Cc4c([nH]c5ccccc45)C(C)(C)N3C2=O)c1`, for which the values for the IC50 in the test on PEG-3 [1] (setting [3]) and in the test on PEG-3 [1] (setting [4]) were 29.9 µM and 28.6 µM, respectively. On PEG-3 [2], the IC50 entry is “inactive”.
As to `CN(C)c1ccc(N=Nc2nc3ccccc3n2C)cc1`, the IC50 in the test with PEG-3 [1] (setting [3]) is 20.6 µM; with PEG-3 [1] (setting [4]), less than 100 µM. Moreover, the IC50 result at PEG-3 [2] is “inactive”.
The like results for `O=C(Nc1ccc(CN2CCCCC2)cc1)Nc1ccc(Br)cc1Cl` were, in that order, 20.4 µM, 19.8 µM and “inactive”.
The like results for `CN(C)CCc1cc2c(c3c1ccc1ccccc13)OCO2` were, in that order, 16.9 µM, 11.2 µM and 14 µM.
The like results for `COc1cc(C=NO)nc(-c2ccccn2)c1` were, in that order, 0.84 µM, less than 0.2 µM and 0.52 µM.
In the case of `O=[N+]([O-])c1ccc(-c2nc(Nc3cccc(O)c3)c3ccccc3n2)cc1`, the IC50 with PEG-3 [1] (setting [3]) is 13.4 µM; in the test on PEG-3 [1] (setting [4]) it was 12.5 µM; at PEG-3 [2], 12.9 µM.
The like results for `COc1ccc(-n2ncc3c(N(C)C4CCCCC4)ncnc32)cc1` were, in that order, 26.5 µM, 44 µM and “inactive”.
The like results for `O=C(NC(c1ccc(F)cc1)c1ccc2ccccc2n1)C1CCN(Cc2cccc(C(F)(F)F)c2)CC1` (stereo unspecified) were, in that order, 16.2 µM, 7.91 µM and 12.1 µM.
For the compound `Cc1ccccc1NC(=O)C(=Cc1ccc(C(=O)O)cc1)C(=O)Nc1ccccc1C`, the IC50 in the test with PEG-3 [1] (setting [3]) amounted to 37.3 µM; with PEG-3 [1] (setting [4]), 74.4 µM. For the same compound, the IC50 result on PEG-3 [2] is “inactive”.
Turning to `O=C1NC(=O)N(Cc2ccco2)C(=O)/C1=C/C=C/c1ccco1`, the IC50 was 14.8 µM in the test with PEG-3 [1] (setting [3]), 12.6 µM in the test with PEG-3 [1] (setting [4]) and 13.7 µM at PEG-3 [2].
Turning to `COc1cccc(C(=O)O/N=C(\N)c2ccccn2)c1`, the IC50 with PEG-3 [1] (setting [3]) is 15.2 µM; in the test on PEG-3 [1] (setting [4]), 7.08 µM; on PEG-3 [2], 11.1 µM.
The like results for `Cc1ccc(NS(=O)(=O)c2cc3c4c(cccc4c2)C(=O)NC3=O)cc1C` were, in that order, 5.99 µM, more than 100 µM and “inactive”.
With `O=S(=O)(CC(CN1CCCCC1)N1CCCCC1)c1ccccc1` (stereo unspecified), the values for the IC50 in the test with PEG-3 [1] (setting [3]) and in the test on PEG-3 [1] (setting [4]) were 38.2 µM and 18.2 µM, respectively. For the same compound, the IC50 entry on PEG-3 [2] is “inactive”.
The like results for `COC(=O)C1=C(C)N(Cc2ccccc2)C(=NCc2cccc(Cl)c2)N[C@H]1c1ccccc1` were, in that order, 19.1 µM, 12.7 µM and 15.9 µM.
For the compound `COc1ccc(CNCCc2c(C)[nH]c3ccc(OC(F)(F)F)cc23)c(OC)c1`, the IC50 was 13.6 µM in the test with PEG-3 [1] (setting [3]), 13.1 µM in the test with PEG-3 [1] (setting [4]) and 13.4 µM on PEG-3 [2].
For the compound `CN[C@H]1C[C@H]2c3[nH]c4ccc(-c5cccc(C)c5)cc4c3CCN2C[C@H]1[C@H](C)O`, the IC50 in the test with PEG-3 [1] (setting [3]) is 18.8 µM; with PEG-3 [1] (setting [4]), 8.37 µM; at PEG-3 [2] it was 13.6 µM.
The like results for `CC(C)CC(NS(=O)(=O)OCC(Cl)(Cl)Cl)c1ccccc1` (stereo unspecified) were, in that order, 47.6 µM, 17.5 µM and “inactive”.
As to `O=C(Cn1ncc(Cl)c(Cl)c1=O)N1CCN(Cc2ccccc2)CC1`, the IC50 in the test on PEG-3 [1] (setting [3]) was 19.5 µM; in the test with PEG-3 [1] (setting [4]), 8.48 µM; on PEG-3 [2], 14 µM.
The like results for `CCOc1cc(CNCCCN2CCOCC2)ccc1OCC(=O)Nc1cccc2ccccc12` were, in that order, 21.1 µM, 16.2 µM and 18.7 µM.
The like results for `COc1ccc(-c2cc(C(=O)N(C)Cc3ccccc3F)c3ccccc3n2)cc1OC` were, in that order, 23.9 µM, 24.1 µM and “inactive”.
The like results for `Cc1ccc2sc(N(CCCN(C)C)C(=O)c3ccc(S(=O)(=O)N4CCc5ccccc5C4)cc3)nc2c1C` were, in that order, 15.6 µM, 19.2 µM and 17.4 µM.
Consider `COc1cc(NC(=O)c2cccc(C)c2)ccc1NC(=O)c1cc2ccccc2o1`, for which the IC50 in the test on PEG-3 [1] (setting [3]) is 12.9 µM; with PEG-3 [1] (setting [4]), 25.6 µM; on PEG-3 [2] it was 19.3 µM.
As for `O=C1NC(=S)NC(=O)C1=Cc1cccn1-c1ccc(O)cc1`, the values for the IC50 in the test with PEG-3 [1] (setting [3]), with PEG-3 [1] (setting [4]) and on PEG-3 [2] were 18 µM, 14.8 µM and 16.4 µM, respectively.
For `CCN(CC)C(=O)c1ccc(NC(=O)Nc2ccccc2F)cc1`, the IC50 is 18.8 µM with PEG-3 [1] (setting [3]), 15.6 µM in the test with PEG-3 [1] (setting [4]) and 17.2 µM on PEG-3 [2].
The like results for `COC(=O)c1c(NC(=O)c2ccc([N+](=O)[O-])o2)sc2c1CCN(C(C)C)C2` were, in that order, 19.2 µM, 11.8 µM and 15.5 µM.
The like results for `CN(C)CCNc1ccc(CO)c2oc3ccc(O)cc3c(=O)c12` were, in that order, 20.4 µM, 13.5 µM and 16.9 µM.
The like results for `Nc1nc(CCl)nc(Nc2cccc3ccccc23)n1` were, in that order, more than 100 µM, more than 100 µM and > 100 µM (inactive).
As to `CCCc1nc(SCC(=O)N2CCCc3ccccc32)c2c(=O)n(C)c(=O)n(C)c2n1`, the IC50 in the test with PEG-3 [1] (setting [3]) stood at 49 µM; in the test on PEG-3 [1] (setting [4]), 38.2 µM. Further, the IC50 result on PEG-3 [2] was “inactive”.
The like results for `COc1ccc(C2NCCc3c2[nH]c2ccccc32)cc1COc1ccc(F)cc1` (stereo unspecified) were, in that order, 16.9 µM, 7.75 µM and 12.3 µM.
In the case of `CCc1ccc(O)c(CNCCNCc2cc(CC)ccc2O)c1`, the IC50 was 20.6 µM in the test on PEG-3 [1] (setting [3]), 16.4 µM in the test on PEG-3 [1] (setting [4]) and 18.5 µM at PEG-3 [2].
The like results for `COCCn1c(C)cc(C(=O)CSc2nnc3ccccn23)c1C` were, in that order, 8.34 µM, 21.8 µM and 15.1 µM.
The like results for `c1ccc(CN2CCC(Nc3nc(-c4cccnc4)nc4ccccc34)CC2)cc1` were, in that order, 20.2 µM, 26.7 µM and “inactive”.
On to `CCC(C)Sc1ccc(-c2nc3ccccn3c2NCc2ccccc2)cc1OC` (stereo unspecified), for which the IC50 came to 38.3 µM in the test with PEG-3 [1] (setting [3]) and 20.2 µM in the test on PEG-3 [1] (setting [4]). Besides, at PEG-3 [2], the IC50 entry is “inactive”.
The like results for `CCOC(=O)c1c(NC(C)=O)sc2c(OCC(O)CNC(C)(C)C)c(Br)ccc12` (stereo unspecified) were, in that order, 18 µM, 9.14 µM and 13.6 µM.
Regarding `CN(C)c1ccc(/C=N/NC(=O)c2nnn(-c3nonc3N)c2COc2ccc(F)cc2)cc1`, the IC50 in the test on PEG-3 [1] (setting [3]) was more than 100 µM; in the test on PEG-3 [1] (setting [4]), more than 100 µM; at PEG-3 [2] it was > 100 µM (inactive).
For the compound `Cc1cc(C)nc(NC(=O)c2c(F)c(F)c(F)c(C(=O)Nc3cc(C)cc(C)n3)c2F)c1`, the values for the IC50 in the test on PEG-3 [1] (setting [3]), in the test on PEG-3 [1] (setting [4]) and at PEG-3 [2] were 20.1 µM, 19.5 µM and 19.8 µM, respectively.
`O=C(C=Cc1ccccn1)c1ccccc1`: the IC50 in the test with PEG-3 [1] (setting [3]) was 20.7 µM; with PEG-3 [1] (setting [4]), 12.5 µM; on PEG-3 [2], 16.6 µM.
The like results for `Cc1ccc(C(=O)N2CCN(c3ccc([N+](=O)[O-])c(NCc4cccnc4)c3)CC2)cc1` were, in that order, 10.6 µM, 22.7 µM and 16.7 µM.
The like results for `COc1ccccc1NC(=O)Nc1nc(C(N)CCc2ccccc2)cs1` (stereo unspecified) were, in that order, 12.2 µM, 16.3 µM and 14.2 µM.
The like results for `O=c1c2ccccc2oc2cc(C#CC3(O)CCCCC3)ccc12` were, in that order, 27.8 µM, more than 100 µM and “inactive”.
For the compound `Cc1cccc(-n2ncc3c(N(C)C4CCCCC4)ncnc32)c1`, the IC50 was 22.6 µM in the test on PEG-3 [1] (setting [3]) and 26.7 µM with PEG-3 [1] (setting [4]). Moreover, the IC50 result at PEG-3 [2] was “inactive”.

The term IC50 denotes the concentration needed to halve the response being measured.
